{"source": "patent US8211646B1", "about": "“Methods of treating ovarian cancer by modulating SnoN” (University of South Florida, priority 2008, dated 2012)", "assay_type_in_all_cases": "cell-based", "key": {"SnoN": {"system": "SnoN", "assay": "Western analysis of SnoN protein levels", "set-up": "SnoN basal protein levels: dose or concentration left out as unconfirmed", "method": "(§1) Proteins were resolved on an 8%, 12%, or 15% SDS-PAGE gel (as appropriate) and electrophoretically transferred to polyvinyldifluoride (PVDF) membranes. After blocking with 5% (w/v) milk in TBST (Tris-Buffered Saline containing 0.1% Tween-20) for one hour at room temperature, membranes were incubated with primary antibodies (at appropriate dilution) overnight at 4° C., followed by extensive washing and incubation for 1 hour with the appropriate horseradish peroxidase-conjugated secondary antibodies (BioRad, Hercules, Calif.). Blots were washed extensively. A rabbit polyclonal EVI1 antibody was obtained (1:3000 dilution, St. Jude's Children's Hospital, Memphis, Tenn.). SnoN rabbit polyclonal (1:1000 dilution), PML, and p21 SMURF2 rabbit polyclonal (1:500 dilution), MRP1 mouse monoclonal (1:500 dilution) and GAPDH mouse monoclonal (1:250 dilution) antibodies were obtained from Santa Cruz Biotechnology (Santa Cruz, Calif.). TGFβRII rabbit polyclonal (1:1000 dilution) antibody was obtained from Strategic Diagnostics (Newark, Del.). Smad2/3 rabbit polyclonal (1:1000 dilution), Beclin-1 rabbit polyclonal (1:1000 dilution), AKT rabbit polyclonal (1:1000 dilution), TAK1 rabbit polyclonal (1:1000 dilution), PARP rabbit polyclonal (1:1000 dilution), Beclin-1 rabbit polyclonal (1:1000 dilution), caspase-3 rabbit polyclonal (1:1000) which detects the pro-caspase form, and ATG5 rabbit polyclonal (1:1000 dilution), LC3-II rabbit polyclonal (1:1000 dilution) antibodies were obtained from Cell Signaling Technology (Danvers, Mass.). The HSP27 mouse monoclonal (1:1000 dilution) antibody was obtained from Stressgen (Ann Arbor, Mich.). Blots were developed using chemiluminescence substrates (Amersham Piscataway, N.J. or BioRad, Hercules, Calif.). Monoclonal PAI-1 antibody was obtained from BD Pharmingen. PSMAD2, total SMAD2/3, p-ERK, p-AKT, and total AKT antibodies were obtained from Cell Signaling Technology. A monoclonal antibody against Arkadia was obtained from Abnova (Taiwan).\n(§2) Densitometric analysis was performed using the HP Scanjet 5590 and the Image J program (Image Processing and Analysis in Java, NIH Image Software). Bands were selected and the intensity values were normalized to those for GAPDH. The values are presented as fold-changes relative to control siRNA treated cells.\nThe clinical inhibitors As2O3, geldanamycin (17-AAG) (dissolved in dimethylsulfoxide [DMSO]), and MG132 (dissolved in DMSO) were obtained from Sigma-Aldrich (St. Louis, Mo.), Fisher Scientific (Pittsburgh, Pa.), and Alexis Biochemicals (Farmingdale, N.Y.), respectively. N-acetyl-L-cysteine (NAC; dissolved in media) and Bortezomib (PS-341; dissolved in DMSO) were obtained from Fisher Scientific. 3-Methyladenine (3-MA; dissolved in media) was obtained from MP Biomedicals (Solon, Ohio). Tiron (4,5-Dihydroxy-1,3-benzenedisulfonic acid, dissolved in media) was obtained from Fisher Scientific. zVAD-fmk (dissolved in DMSO) and bafilomycin A (dissolved in DMSO) was obtained from Axxora LLC (San Diego, Calif.). Bovine catalase was obtained from Sigma-Aldrich. HBED and Mn TBAP was obtained from ENZO Life Sciences (Farmingdale, N.Y.). Ovarian cells were plated in 6-well plates at 250,000 cells per well and grown in complete medium. […] For control cells, DMSO (a final concentration of <0.5%) was added to compare appropriately to drugs dissolved in DMSO. After the appropriate incubation time (6 or 18 hours), cell lysates were collected, protein quantified, and SDS-PAGE/western analysis was performed. In addition, for selected studies, RNA was isolated, quantified, and used for qPCR analysis."}, "[1]": {"system": "EVI1 forms (MDS1/EVI1, EVI1, EVI1^Del190-515)", "details": "combination with As2O3; HEY, OVCA429", "method": "as §1, §2\n(§3) The clinical inhibitors As2O3, geldanamycin (17-AAG) (dissolved in dimethylsulfoxide [DMSO]), and MG132 (dissolved in DMSO) were obtained from Sigma-Aldrich (St. Louis, Mo.), Fisher Scientific (Pittsburgh, Pa.), and Alexis Biochemicals (Farmingdale, N.Y.), respectively. N-acetyl-L-cysteine (NAC; dissolved in media) and Bortezomib (PS-341; dissolved in DMSO) were obtained from Fisher Scientific. 3-Methyladenine (3-MA; dissolved in media) was obtained from MP Biomedicals (Solon, Ohio). Tiron (4,5-Dihydroxy-1,3-benzenedisulfonic acid, dissolved in media) was obtained from Fisher Scientific. zVAD-fmk (dissolved in DMSO) and bafilomycin A (dissolved in DMSO) was obtained from Axxora LLC (San Diego, Calif.). Bovine catalase was obtained from Sigma-Aldrich. HBED and Mn TBAP was obtained from ENZO Life Sciences (Farmingdale, N.Y.). Ovarian cells were plated in 6-well plates at 250,000 cells per well and grown in complete medium. The following day, the cells were treated with 5 μM MG132, As2O3 (between 2-50 μM), 17-AAG (between 2-50 μM), NAC (Fisher Scientific, between 25 μM to 1 mM), Tiron (between 25 μM to 1 mM), 3-MA (0.1 mM to 10 mM), or zVAD-fmk (25 μM to 100 μM). For control cells, DMSO (a final concentration of <0.5%) was added to compare appropriately to drugs dissolved in DMSO. After the appropriate incubation time (6 or 18 hours), cell lysates were collected, protein quantified, and SDS-PAGE/western analysis was performed. In addition, for selected studies, RNA was isolated, quantified, and used for qPCR analysis."}, "[2]": {"system": "TAK1, SMAD2/3, TGFβRII, AKT, phospho-SMAD2", "assay": "Western analysis of other TGFβ signaling mediators", "method": "as §1, §2, §3"}, "EVI1 and TGFβRII RNA": {"system": "EVI1 and TGFβRII RNA", "assay": "qPCR of EVI1 and TGFβRII RNA levels", "details": "5 μM MG132, 18 hours", "method": "RNA was isolated using the RNeasy Mini Kit (Qiagen, Valencia, Calif.) from normal, benign, stage I-IV ovarian patient samples and quantitative PCR was performed. A one-step RT-PCR Taqman master mix from Applied Biosystems (Foster City, Calif.) and primers for genes in the 3q26.2 amplicon were obtained using Genebank sequences as well as from Assays on Demand (Hs00180524_m1 (SnoN/SkiL)), with the following primers and probe sets.\nEVI1 Exon III—(detects both EVI1 and MDS1/EVI1):\nPrimers/probe sequences for SnoN (Hs00180524_m1), TGFβRII (Hs00234253_m1), and LC3 (Hs00261291_m1) were obtained from Applied Biosystems (Assays by Design).\nmRNA levels were determined using the One-Step-Plus Applied Biosystems Detection System or ABI PRISM 7700 Sequence Detection System using β-actin as a reference. […] 95° C. for 15 s followed by 60° C. for 1 min Using the correlative method, RNA-fold change in expression was calculated as Ct of gene—Ct of β-actin to generate ΔCt from which ΔCt of the normal sample was subtracted. […]\nThe clinical inhibitors As2O3, geldanamycin (17-AAG) (dissolved in dimethylsulfoxide [DMSO]), and MG132 (dissolved in DMSO) were obtained from Sigma-Aldrich (St. Louis, Mo.), Fisher Scientific (Pittsburgh, Pa.), and Alexis Biochemicals (Farmingdale, N.Y.), respectively. […] In addition, for selected studies, RNA was isolated, quantified, and used for qPCR analysis."}}, "note": "Peptide text beside a SMILES is read from it. * marks the point of attachment. Cbz = O=C(OCc1ccccc1)*"}
{"smiles": "CC(C)C[C@@H](C=O)NC(=O)[C@H](CC(C)C)NC(=O)[C@H](CC(C)C)NC(=O)OCc1ccccc1", "note": "[MG132] (Cbz-Leu-Leu-Leu-aldehyde)", "values": [{"measurement": "SnoN basal protein levels", "setting": "SnoN; MG132, HEY and OVCA429, threshold between 3 and 6 h", "value": "marked increase"}, {"measurement": "SnoN protein in drug-treated cells with added proteosome inhibitor", "setting": "SnoN; combination with As2O3", "value": "further increased"}, {"measurement": "EVI1 protein in As2O3-treated cells with added proteosome inhibitor", "setting": "[1]", "value": "recovered"}, {"measurement": "AKT, SMAD2/3, and TGFβRII protein levels", "setting": "[2]; MG132 at 18 hours", "value": "significantly decreased"}, {"measurement": "TGFβRII protein in drug-treated cells with added proteosome inhibitor", "setting": "[2]; combination with As2O3 (MG132: 6 hour drug treatment)", "value": "recovered"}, {"measurement": "EVI1 and TGFβRII RNA levels", "setting": "EVI1 and TGFβRII RNA", "value": "markedly reduce"}]}
